This note sets out measurements from paper PMC9841397 (2023).

In this test the test system is CMP-D-C3 (C3, ΔP1a) (RNA, riboswitch) GGAGCGUUACGUCCGCCCACGGCUCUUUAAAAACAAAAGGA
The test is described as follows: ITC. The conditions noted are these: 100 mM K+, 20 mM Mg2+; 50 mM K-MOPS pH 7.5, 25 °C.

Consider `NC(=O)c1ccc[n+]([C@@H]2O[C@H](COP(=O)(O)O)[C@@H](O)[C@H]2O)c1`, for which the Kd (as a rule, the constant that tells how readily two partners part at equilibrium) turned out to be 18.3 ± 1.2 µM.
